The values that follow are results of earlier work, collected in patent US20100210643A1, “sGC STIMULATORS, sGC ACTIVATORS AND COMBINATIONS FOR THE TREATMENT OF UROLOGICAL DISORDERS” (BAYER SCHERING PHARMA AKTIENGESELLSCHAFT, priority 2007, published 2010).

In data set [1] the test system is bladder of female Guinea Pigs. Conditions: literature (Gillespie 2004).
For data set [2], the system named is pre-contracted human prostate tissue. As to conditions: in vitro; literature (Uckert 2001).

With `CC(C)Cn1c(=O)n(C)c(=O)c2[nH]cnc21` [IBMX], the relaxation of bladder entry in data set [1] is recorded as “could relax”.
As for `CCCOc1ccccc1-c1nc2nn[nH]c2c(=O)[nH]1` [Zaprinast], the relaxation of bladder entry in data set [1] was “ineffective”. Further, the “relaxation of pre-contracted human prostate tissue” value in data set [2] is “able to relax”.
